This note sets out measurements from publication PMC3919268, “Three-dimensional structure of a Streptomyces sviceus GNAT acetyltransferase with similarity to the C-terminal domain of the human GH84 O-GlcNAcase” (Acta Crystallographica Section D: Biological Crystallography, 2013).

Each structure is given as a SMILES string. pKd: −log10 of the molar value.

This experiment concerns the target T1, SsAT (acetyltransferase, accession No. ZP_05014886) (Streptomyces sviceus, UniProt B5HKU0).
T1 construct: gene SSEG_00025; recombinant N-terminally His-tagged SsAT, freshly purified
The experiment can be described thus: ITC, pH […]°C, one-site model, n close to […]. Format: binding.

T1 sequence (B5HKU0 entry or part of it): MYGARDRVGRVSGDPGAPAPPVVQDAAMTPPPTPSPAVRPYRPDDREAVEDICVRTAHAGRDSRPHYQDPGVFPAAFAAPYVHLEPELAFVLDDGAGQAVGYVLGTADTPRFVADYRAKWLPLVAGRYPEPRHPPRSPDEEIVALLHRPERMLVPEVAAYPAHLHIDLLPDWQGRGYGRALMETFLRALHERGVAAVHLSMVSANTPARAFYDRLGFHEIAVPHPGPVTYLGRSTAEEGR

By pKd is commonly meant the negative decadic logarithm of the Kd, by convention in mol/L. The compound `CC(=O)SCCNC(=O)CCNC(=O)[C@H](O)C(C)(C)COP(=O)(O)OP(=O)(O)OC[C@H]1O[C@@H](n2cnc3c(N)ncnc32)[C@H](O)[C@@H]1OP(=O)(O)O` [acetyl coenzyme A] showed a negative logarithm of the Kd (pKd) of 4.70.
